Source: article PMC5218480 (PLoS ONE, 2017)

Test system: MV-4-11 cells
Assay: Gene expression microarray analysis (Affymetrix PrimeView) and GSEA
Format: cell-based, human
Design: RFU PODN (11730768_x_at) / Fold change /veh PODN (11730768_x_at) / RFU LINC00158 (11744669_a_at) / Fold change /veh LINC00158 (11744669_a_at) / RFU DUSP10 (11751237_a_at) / Fold change /veh DUSP10 (11751237_a_at) / RFU ID3 (11757404_x_at) / Fold change /veh ID3 (11757404_x_at) / RFU PLEKHG5 (11737974_s_at) / Fold change /veh PLEKHG5 (11737974_s_at) / RFU LRRC4B (11730491_at) / Fold change /veh LRRC4B (11730491_at) / RFU GIMAP4 (11747438_a_at) / Fold change /veh GIMAP4 (11747438_a_at) / RFU KRT8 (11758183_x_at) / Fold change /veh KRT8 (11758183_x_at) / RFU CNN1 (11734310_a_at) / Fold change /veh CNN1 (11734310_a_at) / RFU VPS37D (11726825_at) / Fold change /veh VPS37D (11726825_at) / RFU C10orf10 (11716522_x_at) / Fold change /veh C10orf10 (11716522_x_at) / RFU KIR2DL2 /// KIR2DL4 /// KIR2DL5A /// KIR2DL5B /// KIR2DS1 /// KIR2DS2 /// KIR2DS3 /// KIR2DS4 /// KIR3DL3 /// KIR3DL3 /// KIR3DS1 (11738374_at) / Fold change /veh KIR2DL2 /// KIR2DL4 /// KIR2DL5A /// KIR2DL5B /// KIR2DS1 /// KIR2DS2 /// KIR2DS3 /// KIR2DS4 /// KIR3DL3 /// KIR3DL3 /// KIR3DS1 (11738374_at) / RFU C1QL1 (11718748_at) / Fold change /veh C1QL1 (11718748_at) / RFU TMPRSS4 (11747572_a_at) / Fold change /veh TMPRSS4 (11747572_a_at) / RFU HAMP (11756126_x_at) / Fold change /veh HAMP (11756126_x_at) / RFU RNFT2 (11725882_a_at) / Fold change /veh RNFT2 (11725882_a_at) / RFU NR4A2 (11747474_a_at) / Fold change /veh NR4A2 (11747474_a_at) / RFU ABCC12 (11746883_a_at) / Fold change /veh ABCC12 (11746883_a_at) / RFU TMEM136 (11760407_x_at) / Fold change /veh TMEM136 (11760407_x_at) / RFU CLDN22 /// WWC2 (11732394_at) / Fold change /veh CLDN22 /// WWC2 (11732394_at) / RFU HLA-DPB1 (11760878_x_at) / Fold change /veh HLA-DPB1 (11760878_x_at) / RFU SPINT1 (11716480_a_at) / Fold change /veh SPINT1 (11716480_a_at) / RFU GAP43 (11754022_s_at) / Fold change /veh GAP43 (11754022_s_at) / RFU A4GNT (11735810_at) / Fold change /veh A4GNT (11735810_at) / RFU PRB3 (11715151_x_at) / Fold change /veh PRB3 (11715151_x_at) / RFU TUBB4B (11761932_at) / Fold change /veh TUBB4B (11761932_at) / RFU CAPN14 (11732068_a_at) / Fold change /veh CAPN14 (11732068_a_at) / RFU TMCC2 (11721928_a_at) / Fold change /veh TMCC2 (11721928_a_at) / RFU IRGQ (11745062_a_at) / Fold change /veh IRGQ (11745062_a_at) / RFU FAM174B (11720279_a_at) / Fold change /veh FAM174B (11720279_a_at) / RFU TMPRSS4 (11748680_a_at) / Fold change /veh TMPRSS4 (11748680_a_at) / RFU FAM212B (11763350_a_at) / Fold change /veh FAM212B (11763350_a_at) / RFU PLEKHG5 (11743358_a_at) / Fold change /veh PLEKHG5 (11743358_a_at) / RFU ZSCAN30 (11745921_a_at) / Fold change /veh ZSCAN30 (11745921_a_at) / RFU CMKLR1 (11741424_a_at) / Fold change /veh CMKLR1 (11741424_a_at) / RFU LOC101060620 /// MAPK8IP1 (11723275_at) / Fold change /veh LOC101060620 /// MAPK8IP1 (11723275_at) / RFU SPTSSB (11747773_x_at) / Fold change /veh SPTSSB (11747773_x_at) / RFU PRSS12 (11739890_at) / Fold change /veh PRSS12 (11739890_at) / RFU BIN1 (11741810_x_at) / Fold change /veh BIN1 (11741810_x_at) / RFU WNT11 (11732464_a_at) / Fold change /veh WNT11 (11732464_a_at) / RFU C10orf10 (11716521_a_at) / Fold change /veh C10orf10 (11716521_a_at) / RFU C5orf56 (11738089_at) / Fold change /veh C5orf56 (11738089_at) / RFU CYB561 (11721691_x_at) / Fold change /veh CYB561 (11721691_x_at) / RFU ANKRD19P (11752326_a_at) / Fold change /veh ANKRD19P (11752326_a_at) / RFU OR2T12 /// OR2T33 /// OR2T8 (11738714_s_at) / Fold change /veh OR2T12 /// OR2T33 /// OR2T8 (11738714_s_at) / RFU VCAN (11748164_a_at) / Fold change /veh VCAN (11748164_a_at) / RFU JSRP1 (11732532_at) / Fold change /veh JSRP1 (11732532_at) / RFU KRTAP10-11 (11738290_x_at) / Fold change /veh KRTAP10-11 (11738290_x_at) / RFU MYO3A (11730013_a_at) / Fold change /veh MYO3A (11730013_a_at) / RFU EBF3 (11725865_a_at) / Fold change /veh EBF3 (11725865_a_at) / RFU CAMK2N1 (11719241_x_at) / Fold change /veh CAMK2N1 (11719241_x_at) / RFU C5orf56 (11738088_a_at) / Fold change /veh C5orf56 (11738088_a_at) / RFU OLFML3 (11715873_a_at) / Fold change /veh OLFML3 (11715873_a_at) / RFU LOC100653217 /// NTM (11731650_a_at) / Fold change /veh LOC100653217 /// NTM (11731650_a_at) / RFU MAPK11 (11762145_a_at) / Fold change /veh MAPK11 (11762145_a_at) / RFU FIZ1 (11724087_x_at) / Fold change /veh FIZ1 (11724087_x_at) / RFU OASL (11726364_x_at) / Fold change /veh OASL (11726364_x_at) / RFU SOX15 (11748057_x_at) / Fold change /veh SOX15 (11748057_x_at) / RFU CD79A (11719716_a_at) / Fold change /veh CD79A (11719716_a_at) / RFU HIST1H1D (11736915_at) / Fold change /veh HIST1H1D (11736915_at) / RFU CASKIN2 (11723855_a_at) / Fold change /veh CASKIN2 (11723855_a_at) / RFU LOC730098 (11760151_x_at) / Fold change /veh LOC730098 (11760151_x_at) / RFU OR4N2 (11742367_at) / Fold change /veh OR4N2 (11742367_at) / RFU PRRT2 (11749266_a_at) / Fold change /veh PRRT2 (11749266_a_at) / RFU SNX32 (11753110_a_at) / Fold change /veh SNX32 (11753110_a_at) / RFU CDHR5 (11726645_a_at) / Fold change /veh CDHR5 (11726645_a_at) / RFU RCAN1 (11760418_a_at) / Fold change /veh RCAN1 (11760418_a_at) / RFU FAM167A (11723789_a_at) / Fold change /veh FAM167A (11723789_a_at) / RFU FAM26E (11764081_at) / Fold change /veh FAM26E (11764081_at) / RFU ISYNA1 (11749810_s_at) / Fold change /veh ISYNA1 (11749810_s_at) / RFU ACY1 (11761880_at) / Fold change /veh ACY1 (11761880_at) / RFU 11764098_at / Fold change /veh 11764098_at / RFU SAMD14 (11745864_x_at) / Fold change /veh SAMD14 (11745864_x_at) / RFU NPB (11741838_a_at) / Fold change /veh NPB (11741838_a_at) / RFU TMPRSS6 (11731388_a_at) / Fold change /veh TMPRSS6 (11731388_a_at) / RFU KRTAP10-2 (11738614_at) / Fold change /veh KRTAP10-2 (11738614_at) / RFU ARHGAP8 /// PRR5-ARHGAP8 (11727945_x_at) / Fold change /veh ARHGAP8 /// PRR5-ARHGAP8 (11727945_x_at) / RFU KRTAP5-7 /// NADSYN1 (11734609_at) / Fold change /veh KRTAP5-7 /// NADSYN1 (11734609_at) / RFU RASL12 (11751679_a_at) / Fold change /veh RASL12 (11751679_a_at) / RFU CDKN2B (11736163_a_at) / Fold change /veh CDKN2B (11736163_a_at) / RFU PRF1 (11729649_at) / Fold change /veh PRF1 (11729649_at) / RFU, ZNF638 /// ZNF638-IT1 / Fold change vs veh, ZNF638 /// ZNF638-IT1 / RFU, PANK3 / Fold change vs veh, PANK3 / RFU, SH3YL1 / Fold change vs veh, SH3YL1 / RFU, ZEB2 / Fold change vs veh, ZEB2 / RFU, NRIP1 / Fold change vs veh, NRIP1 / RFU, PTTG1IP / Fold change vs veh, PTTG1IP / RFU, CAPN2 / Fold change vs veh, CAPN2 / RFU, MED14 / Fold change vs veh, MED14 / RFU, SNORA58 / Fold change vs veh, SNORA58 / RFU, C1orf63 / Fold change vs veh, C1orf63 / RFU, LRRFIP1 / Fold change vs veh, LRRFIP1 / RFU, NDUFAF7 / Fold change vs veh, NDUFAF7 / RFU, SLC12A2 / Fold change vs veh, SLC12A2 / RFU, IBTK / Fold change vs veh, IBTK / RFU, ESF1 / Fold change vs veh, ESF1 / Fold change vs veh, TMEM50B / RFU, TAOK1 / Fold change vs veh, TAOK1 / RFU, ACBD3 / Fold change vs veh, ACBD3 / RFU, TMA16 / Fold change vs veh, TMA16 / RFU, RWDD3 / Fold change vs veh, RWDD3 / RFU, BCAT1 / Fold change vs veh, BCAT1 / RFU, EDEM3 / Fold change vs veh, EDEM3 / RFU, TMEM33 / Fold change vs veh, TMEM33 / RFU, WDR75 / Fold change vs veh, WDR75 / RFU, AHCTF1 / Fold change vs veh, AHCTF1 / RFU, TFRC / Fold change vs veh, TFRC / RFU, ZDHHC17 / Fold change vs veh, ZDHHC17 / RFU, NOM1 / Fold change vs veh, NOM1 / RFU, ARL8B / Fold change vs veh, ARL8B / RFU, ZBTB11 / Fold change vs veh, ZBTB11 / RFU, TAMM41 / Fold change vs veh, TAMM41 / RFU, KIAA1704 /// LOC100996395 / Fold change vs veh, KIAA1704 /// LOC100996395 / RFU, ING1 / Fold change vs veh, ING1 / RFU, TRMT61B / Fold change vs veh, TRMT61B / RFU, FUBP3 / Fold change vs veh, FUBP3 / RFU, TP53 / Fold change vs veh, TP53 / RFU, TNKS2 / Fold change vs veh, TNKS2 / RFU, ZFP14 / Fold change vs veh, ZFP14 / RFU, ACTR2 / Fold change vs veh, ACTR2 / RFU, PPP3R1 / Fold change vs veh, PPP3R1 / RFU, PIK3R1 / Fold change vs veh, PIK3R1 / RFU, HNRNPA1 / Fold change vs veh, HNRNPA1 / RFU, RNF170 / Fold change vs veh, RNF170 / RFU, ZNF28 / Fold change vs veh, ZNF28 / RFU, RNGTT / Fold change vs veh, RNGTT / RFU, OGT / Fold change vs veh, OGT / RFU, BRD1 / Fold change vs veh, BRD1 / RFU, MARS / Fold change vs veh, MARS / RFU, ZNF655 / Fold change vs veh, ZNF655 / RFU, FAHD1 / Fold change vs veh, FAHD1 / RFU, BDP1 / Fold change vs veh, BDP1 / RFU, LRRCC1 / Fold change vs veh, LRRCC1 / RFU, ARID1A / Fold change vs veh, ARID1A / RFU, ZNF146 / Fold change vs veh, ZNF146 / RFU, ZNF330 / Fold change vs veh, ZNF330 / RFU, GPN3 / Fold change vs veh, GPN3 / RFU, C9orf123 / Fold change vs veh, C9orf123 / RFU, N4BP2L2 / Fold change vs veh, N4BP2L2 / RFU, ARFIP1 / Fold change vs veh, ARFIP1 / RFU, FAM179B / Fold change vs veh, FAM179B / RFU, BCL10 / Fold change vs veh, BCL10 / RFU, UHRF1BP1L / Fold change vs veh, UHRF1BP1L / RFU, BET1 / Fold change vs veh, BET1 / RFU, CNOT2 / Fold change vs veh, CNOT2 / RFU, ZNF268 / Fold change vs veh, ZNF268 / Fold change vs veh, ZNF507 / RFU, DGCR2 / Fold change vs veh, DGCR2 / RFU, WDSUB1 / Fold change vs veh, WDSUB1 / Fold change vs veh, HSP90B1 /// MIR3652 / RFU, ADSS / Fold change vs veh, ADSS / RFU, GK / Fold change vs veh, GK / RFU, ZNF148 / Fold change vs veh, ZNF148 / RFU, TAF9 / Fold change vs veh, TAF9 / RFU, SLC1A5 / Fold change vs veh, SLC1A5 / RFU, SLMO2 / Fold change vs veh, SLMO2 / RFU, ABCC4 / Fold change vs veh, ABCC4 / RFU, LOC101060439 /// RAP1B / Fold change vs veh, LOC101060439 /// RAP1B / RFU, RFX7 / Fold change vs veh, RFX7 / RFU, GTPBP10 / Fold change vs veh, GTPBP10 / RFU, CNEP1R1 / Fold change vs veh, CNEP1R1 / RFU, BIVM-ERCC5 /// ERCC5 / Fold change vs veh, BIVM-ERCC5 /// ERCC5 / RFU, ILF3 / Fold change vs veh, ILF3 / RFU 11762660_at / Fold change /veh 11762660_at / RFU VCAN (11757783_s_at) / Fold change /veh VCAN (11757783_s_at) / RFU DDX43 (11728927_at) / Fold change /veh DDX43 (11728927_at) / RFU KRT8 (11758188_x_at) / Fold change /veh KRT8 (11758188_x_at) / RFU NKD1 (11759106_at) / Fold change /veh NKD1 (11759106_at) / RFU SRD5A1 (11742802_a_at) / Fold change /veh SRD5A1 (11742802_a_at) / RFU TPSAB1 /// TPSB2 (11721975_s_at) / Fold change /veh TPSAB1 /// TPSB2 (11721975_s_at) / RFU GSTM3 (11746129_a_at) / Fold change /veh GSTM3 (11746129_a_at) / RFU IL23R (11737362_x_at) / Fold change /veh IL23R (11737362_x_at) / RFU TMEM51 (11727254_a_at) / Fold change /veh TMEM51 (11727254_a_at) / RFU PIWIL2 (11732686_x_at) / Fold change /veh PIWIL2 (11732686_x_at) / RFU ORM1 (11744905_x_at) / Fold change /veh ORM1 (11744905_x_at) / RFU CCDC152 (11743942_at) / Fold change /veh CCDC152 (11743942_at) / RFU ECM1 (11717891_a_at) / Fold change /veh ECM1 (11717891_a_at) / RFU IL23R (11748794_a_at) / Fold change /veh IL23R (11748794_a_at) / RFU TNFAIP8L3 (11732012_x_at) / Fold change /veh TNFAIP8L3 (11732012_x_at) / RFU MBOAT4 (11741988_at) / Fold change /veh MBOAT4 (11741988_at) / RFU 11764193_at / Fold change /veh 11764193_at / RFU TMEM53 (11763286_at) / Fold change /veh TMEM53 (11763286_at) / RFU MAGEB2 (11727129_at) / Fold change /veh MAGEB2 (11727129_at) / RFU TMEM200A (11744735_a_at) / Fold change /veh TMEM200A (11744735_a_at) / RFU CCDC152 (11751479_a_at) / Fold change /veh CCDC152 (11751479_a_at) / RFU FAM211A (11726209_a_at) / Fold change /veh FAM211A (11726209_a_at) / RFU RGS16 (11746705_a_at) / Fold change /veh RGS16 (11746705_a_at) / RFU VCAN (11755009_s_at) / Fold change /veh VCAN (11755009_s_at) / RFU RHOB (11743442_s_at) / Fold change /veh RHOB (11743442_s_at) / RFU RGS16 (11720943_a_at) / Fold change /veh RGS16 (11720943_a_at) / RFU RGS16 (11720944_at) / Fold change /veh RGS16 (11720944_at) / RFU, VPS4B / Fold change vs veh, VPS4B / RFU, CREB1 / Fold change vs veh, CREB1 / RFU, DNAJC13 / Fold change vs veh, DNAJC13 / RFU, GNAQ / Fold change vs veh, GNAQ / RFU, CDK5R1 / Fold change vs veh, CDK5R1 / RFU, ZRANB3 / Fold change vs veh, ZRANB3 / RFU, CUL4A / Fold change vs veh, CUL4A / RFU, CCNY / Fold change vs veh, CCNY / RFU, UFL1 / Fold change vs veh, UFL1 / RFU, COG3 / Fold change vs veh, COG3 / RFU, DIAPH2 / Fold change vs veh, DIAPH2 / RFU, SKA2 / Fold change vs veh, SKA2 / RFU, AFF3 / Fold change vs veh, AFF3 / RFU, LMF1 / Fold change vs veh, LMF1 / RFU, IPO11 / Fold change vs veh, IPO11 / RFU, DFFB / Fold change vs veh, DFFB / RFU, FOXP1 / Fold change vs veh, FOXP1 / RFU, CARD8 / Fold change vs veh, CARD8 / RFU, STRN3 / Fold change vs veh, STRN3 / RFU, ADK / Fold change vs veh, ADK / RFU, RASSF2 / Fold change vs veh, RASSF2 / RFU, WIPF1 / Fold change vs veh, WIPF1 / RFU, LARP1B / Fold change vs veh, LARP1B / RFU, RASA1 / Fold change vs veh, RASA1 / RFU, RB1 / Fold change vs veh, RB1 / RFU, PPFIA1 / Fold change vs veh, PPFIA1 / RFU, MAT2A / Fold change vs veh, MAT2A / RFU, CCT5 / Fold change vs veh, CCT5 / RFU, WDR92 / Fold change vs veh, WDR92 / RFU, CUX1 / Fold change vs veh, CUX1 / RFU, TTC7A / Fold change vs veh, TTC7A / RFU, TMEM135 / Fold change vs veh, TMEM135 / RFU, DEPTOR / Fold change vs veh, DEPTOR / RFU, CPM / Fold change vs veh, CPM / RFU, DNAJB6 / Fold change vs veh, DNAJB6 / RFU, CACNA2D3 / Fold change vs veh, CACNA2D3 / RFU, DTX4 / Fold change vs veh, DTX4 / RFU, TFCP2 / Fold change vs veh, TFCP2 / RFU, GMCL1 /// GMCL1P1 / Fold change vs veh, GMCL1 /// GMCL1P1 / RFU, AEBP2 / Fold change vs veh, AEBP2 / RFU, SNHG1 /// SNORD22 /// SNORD25 /// SNORD26 /// SNORD27 /// SNORD28 /// SNORD29 /// SNORD31 / Fold change vs veh, SNHG1 /// SNORD22 /// SNORD25 /// SNORD26 /// SNORD27 /// SNORD28 /// SNORD29 /// SNORD31 / Fold change (Aza/veh), C12orf56 (ProbeSet 11735607_a_at) / Fold change (ACY-1035/veh), C12orf56 (ProbeSet 11735607_a_at) / Fold change (Aza/veh), FGFR1OP (ProbeSet 11751329_s_at) / Fold change (ACY-1035/veh), FGFR1OP (ProbeSet 11751329_s_at) / Fold change (Aza/veh), VPS36 (ProbeSet 11739960_a_at) / Fold change (ACY-1035/veh), VPS36 (ProbeSet 11739960_a_at) / RFU SYPL1 (11715823_x_at) / Fold change /veh SYPL1 (11715823_x_at) / RFU IGFBP7 (11715501_s_at) / Fold change /veh IGFBP7 (11715501_s_at) / RFU REEP3 (11722064_at) / Fold change /veh REEP3 (11722064_at) / RFU IGLL1 (11728026_x_at) / Fold change /veh IGLL1 (11728026_x_at): dose or concentration left out as unconfirmed
Settings: MV-4-11 cells, 48 hours

`Nc1ncn([C@@H]2O[C@H](CO)[C@@H](O)[C@H]2O)c(=O)n1` [azacitidine] was tested, and the “Fold change /veh SNX32 (11753110_a_at)” value was 1.11.
